Reference: US20230131501A1, “THERAPEUTIC USES OF INHIBITORS OF THE RNA-BINDING PROTEIN HuR” (University of Kansas, priority 2020, published 2023)
pIC50: −log10 of the molar value. Entries after “also recorded” stand apart in the source; their conditions may differ.

Columns and labels:
[1] = target: T1, HuR protein bound to Msi1-Bi (Homo sapiens, UniProt Q15717); assay: Pull-down assay #1, RNA immunoprecipitation with biotinylated Msi1 ARE oligo; format: cell-based; details: cytoplasmic lysates of treated cells with HuR overexpression
T1 construct: endogenous in cells
T1 sequence (Q15717 2-326 limits assumed): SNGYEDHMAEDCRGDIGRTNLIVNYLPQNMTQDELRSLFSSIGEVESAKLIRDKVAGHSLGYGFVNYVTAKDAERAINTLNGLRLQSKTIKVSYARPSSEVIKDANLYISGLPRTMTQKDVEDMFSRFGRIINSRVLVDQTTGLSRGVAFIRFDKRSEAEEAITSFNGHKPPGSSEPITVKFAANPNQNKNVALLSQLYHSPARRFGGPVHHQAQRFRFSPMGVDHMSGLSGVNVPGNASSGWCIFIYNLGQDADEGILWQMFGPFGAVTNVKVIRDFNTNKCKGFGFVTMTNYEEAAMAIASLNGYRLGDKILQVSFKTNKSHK
Description: Cells with HuR overexpression were treated with compounds, then the cell cytoplasmic lysates were collected using NE-PER Nuclear and Cytoplasmic Extraction Kit (Thermo Scientific), and subsequently to the cell cytoplasmic lysates were added the biotinylated target ARE oligo from Msi1 mRNA (Msi1-Bi). Following this, streptavidin beads were added to pull down HuR protein bound to Msi1-Bi. Compounds of the present technology blocked the HuR pull-down by the biotinylated ARE oligo, illustrating inhibition of the Hur-mRNA interaction. Unlabeled target AREs were used as positive control. FIG. 6A provides results with KH-3, illustrating KH-3 blocked Msi1-Bi RNA mediated pull-down of HuR protein up to 24%.

[2] = test system: hTERT-HPNE (non-cancerous human pancreatic ductal epithelial cell line); assay: MTT cell viability, non-cancerous cells; format: cell-based; details: 48 hours
Description: Pancreatic cancer cell lines were obtained from the American Type Culture Collection (Manassas, Va.). hTERT-HPNE cells (immortalized human pancreatic ductal epithelial cells) were donated by Dr. Anant at the University of Kansas Medical Center. MTT assay was used for cell viability detection, with starting cell number in 96-well plate of 3000/well (for 72 h treatment) or 5000/well (for 48 h treatment).
Pancreatic cancer cell lines with different endogenous HuR expression levels were treated with serial concentrations of KH-3 for 48 hours. KH-3 induced cytotoxicity in pancreatic cancer cells, with the sensitivity correlated to endogenous HuR protein levels (FIG. 30). MIA PaCa2 cells have the highest HuR protein abundance among the tested cell lines and were the most sensitive to HuR treatment (IC50=5 μM). […] BxPC-3 cells, another human pancreatic cancer cell line, have HuR expression level in the middle, and the IC50 of KH-3 was in the middle (10 μM). A non-cancerous human pancreatic ductal epithelial cell line (hTERT-HPNE) was tested under the same conditions. hTERT-HPEN cells have the lowest abundance of HuR protein compared to the cancer cells, and the cytotoxicity of KH-3 to these cells were minimal (IC50>>40 μM). There is an inverse correlation in the tested cell lines between the HuR expression levels and the sensitivity to KH-3 treatment (FIG. 30) (R=−0.71 by Pearson Tests).

[3] = test system: normal cell line WI-38; assay: Cytotoxicity assay, normal cell line; format: cell-based
Description: (§1) The cytotoxicity of the tested compounds in several cancer cell lines (HCT116 β/w, MIAPaCa-2, and MDA-MB-231) was determined by a cytotoxicity assay, where the results are provided in Table 1. Cells were seeded in 96-well culture plates (5,000 cells/well) and treated with titrated compounds in triplicate. After 96 h incubation, cell growth medium was removed and proliferation reagent WST-8 (Sigma) was added to each well and incubated at 37° C. for 1-3 h. Absorbance was then measured with a plate reader at 450 nm with correction at 650 nm. The results were expressed as the percentage of absorbance of treated wells versus that of vehicle control. IC50, the drug concentration causing 50% growth inhibition, was calculated via sigmoid curve fitting using GraphPad Prism 5.0.
The assay was then utilized to assess cytotoxicity of KH-3 against an expanded panel of cell lines (including normal cell line WI-38), where FIGS. 4A-4C provide the results.

[4] = test system: MDA-MB-231; assay: Cytotoxicity assay (WST-8); format: cell-based; details: Homo sapiens, MDA-MB-231, 96 h, read-out: Cytotoxicity (IC50, μM) MDA-MB-231
Description: as §1, with “5.0. […]” for “5.0.”

[5] = test system: 2LMP subclone of MDA-MB-231, lung metastasis; assay: Experimental metastasis model (2LMP, lung metastasis); format: in vivo, mice
Description: For the experimental metastasis model, Dr. Marc Lippman kindly gifted a 2LMP subclone that was generated from MDA-MB-231 and that formed lung metastasis in mice. 0.5×10^6 2LMP cells stably expressing luciferase in 0.3 mL DMEM were intravenously injected into tail veins of mice. Immediately following injection, mice were imaged by bioluminescence to assure wide distribution and quality of the initial injection. The mice were then randomized into two groups and treated with 50 mg/kg KH-3 or vehicle control via intraperitoneal injection five times per week for five weeks. Bioluminescence imaging was taken weekly to monitor the metastasis burden at lung. […] Imaging was then taken twice a week after first detectable signaling at lung. All animal experiments were carried out according to the protocol approved by the Institutional Animal Use and Care Committee at the University of Kansas.

[6] = 50 mg/kg i.p. five times per week for five weeks

For CC(C)(C)c1ccc(S(=O)(=O)Nc2ccc3sc(/C=C/C(=O)NO)cc3c2)cc1 [KH-3], the “blocking of Msi1-Bi RNA mediated pull-down of HuR protein” value [1] was “up to 24%”, the pIC50 [2] was less than 4.40 and the “concentration until which not cytotoxic” value [3] was “about 100 μM”. The IC50 [4] was 4.15 µM, the median survival time [5, 6] was 81 days and the “median time to initiation of pulmonary metastases” value [5, 6] was 71 days. For the same molecule, the side effects [5, 6] was “minor diarrhea in some mice; also recorded: Some mice had swollen abdomens starting the fourth week of treatment”, the “metastasis rate (mice with pulmonary metastases at the end of experiment)” value ([5]; 50 mg/kg i.p. five times per week for five weeks, 7/9) was 77.7% and the weight gain ([5]; first 43 days of the experiment) was “gained weight similar to those in control group”.
